Experiments:
60 cancer cell lines = assay: NCI-60 one-dose screen (10 μM); type: cell-based; conditions: Homo sapiens; one dose of 10 μM, mean over 60 cancer cell lines; read-out: Mean Growth Percent (MGP)
Description: Additionally, the mean of the growth percentages (MGP) of each compound against all the 60 cancer cell lines is also reported, which is used as one of the selection criteria to continue with tests at five concentration doses.

HL-60(TB) = assay: cells; conditions: Homo sapiens, HL-60, 48 h
MOLT-4 = assay: cells; conditions: Homo sapiens, MOLT-4, 48 h
RPMI-8226 = assay: cells; conditions: Homo sapiens, RPMI-8226, 48 h
A549/ATCC = assay: cells; conditions: Homo sapiens, A549, 48 h
HOP-92 = assay: cells; conditions: Homo sapiens, HOP-92, 48 h
NCI-H226 = assay: cells; conditions: Homo sapiens, NCI-H226, 48 h
NCI-H23 = assay: cells; conditions: Homo sapiens, NCI-H23, 48 h
NCI-H460 = assay: cells; conditions: Homo sapiens, NCI-H460, 48 h
NCI-H522 = assay: cells; conditions: Homo sapiens, NCI-H522, 48 h
COLO 205 = assay: cells; conditions: Homo sapiens, COLO 205, 48 h
HCT-116 = assay: cells; conditions: Homo sapiens, HCT-116, 48 h
HCT-15 = assay: cells; conditions: Homo sapiens, HCT-15, 48 h
HT29 = assay: cells; conditions: Homo sapiens, HT-29, 48 h
KM12 = assay: cells; conditions: Homo sapiens, KM12, 48 h
SF-295 = assay: cells; conditions: Homo sapiens, SF-295, 48 h
SF-539 = assay: cells; conditions: Homo sapiens, SF-539, 48 h
SNB-75 = assay: cells; conditions: Homo sapiens, SNB-75, 48 h
U251 = assay: cells; conditions: Homo sapiens, U-251, 48 h
LOX IMVI = assay: cells; conditions: Homo sapiens, 48 h
M14 = assay: cells; conditions: Homo sapiens, M14, 48 h
SK-MEL-2 = assay: cells; conditions: Homo sapiens, SK-MEL-2, 48 h
SK-MEL-5 = assay: cells; conditions: Homo sapiens, SK-MEL-5, 48 h
UACC-257 = assay: cells; conditions: Homo sapiens, UACC-257, 48 h
OVCAR-4 = assay: cells; conditions: Homo sapiens, OVCAR-4, 48 h
OVCAR-5 = assay: cells; conditions: Homo sapiens, OVCAR-5, 48 h
SK-OV-3 = assay: cells; conditions: Homo sapiens, SK-OV-3, 48 h
786-0 = assay: cells; conditions: Homo sapiens, 786-0, 48 h
A498 = assay: cells; conditions: Homo sapiens, A498, 48 h
SN12C = assay: cells; conditions: Homo sapiens, 48 h
TK-10 = assay: cells; conditions: Homo sapiens, TK-10, 48 h
UO-31 = assay: cells; conditions: Homo sapiens, UO-31, 48 h
DU-145 = assay: cells; conditions: Homo sapiens, DU-145, 48 h
MCF7 = assay: cells; conditions: Homo sapiens, MCF7, 48 h
MDA-MB-231/ATCC = assay: cells; conditions: Homo sapiens, MDA-MB-231, 48 h
T-47D = assay: cells; conditions: Homo sapiens, T47D, 48 h
MDA-MB-468 = assay: cells; conditions: Homo sapiens, MDA-MB-468, 48 h

Cc1ccc(/C=C/C(=O)c2ccc(S(=O)(=O)NCCNc3nc(Nc4ccc(F)cc4)nc(N(C)C)n3)cc2)cc1 [24b]
activity at 10 µM (60 cancer cell lines): 16.5%
GI50 (HL-60(TB)): 5.58 µM
CC50 (HL-60(TB); read-out: LC50): > 100 µM
GI50 (MOLT-4): 3.86 µM
CC50 (MOLT-4; read-out: LC50): > 100 µM
GI50 (RPMI-8226): 2.73 µM
CC50 (RPMI-8226; read-out: LC50): > 100 µM
GI50 (A549/ATCC): 10.5 µM
CC50 (A549/ATCC; read-out: LC50): 77.7 µM
GI50 (HOP-92): 7.63 µM
CC50 (HOP-92; read-out: LC50): 54 µM
GI50 (NCI-H226): 10.4 µM
CC50 (NCI-H226; read-out: LC50): 63.9 µM
GI50 (NCI-H23): 11.3 µM
CC50 (NCI-H23; read-out: LC50): 50 µM
GI50 (NCI-H460): 4.22 µM
CC50 (NCI-H460; read-out: LC50): 52.3 µM
GI50 (NCI-H522): 5.24 µM
CC50 (NCI-H522; read-out: LC50): 45.3 µM
GI50 (COLO 205): 6.51 µM
CC50 (COLO 205; read-out: LC50): 55.1 µM
GI50 (HCT-116): 1.75 µM
CC50 (HCT-116; read-out: LC50): 6.17 µM
GI50 (HCT-15): 3.92 µM
CC50 (HCT-15; read-out: LC50): 35.3 µM
GI50 (HT29): 2.38 µM
CC50 (HT29; read-out: LC50): 16.2 µM
GI50 (KM12): 5.41 µM
CC50 (KM12; read-out: LC50): 99.7 µM
GI50 (SF-295): 11.5 µM
CC50 (SF-295; read-out: LC50): 49.2 µM
GI50 (SF-539): 13 µM
CC50 (SF-539; read-out: LC50, SF-539, 48 h): 51.7 µM
GI50 (SNB-75): 7.59 µM
CC50 (SNB-75; read-out: LC50): > 100 µM
GI50 (U251; U251, 48 h): 11.6 µM
CC50 (U251; read-out: LC50): 58.7 µM
GI50 (LOX IMVI): 4.12 µM
CC50 (LOX IMVI; read-out: LC50, LOX IMVI, 48 h): 39.3 µM
GI50 (M14): 5.91 µM
CC50 (M14; read-out: LC50): 49.2 µM
GI50 (SK-MEL-2): 11.2 µM
CC50 (SK-MEL-2; read-out: LC50): 52.3 µM
GI50 (SK-MEL-5): 8.25 µM
CC50 (SK-MEL-5; read-out: LC50): 45.9 µM
GI50 (UACC-257): 17.4 µM
CC50 (UACC-257; read-out: LC50): 62.9 µM
GI50 (OVCAR-4): 7.79 µM
CC50 (OVCAR-4; read-out: LC50): > 100 µM
GI50 (OVCAR-5): 14.9 µM
CC50 (OVCAR-5; read-out: LC50): 53.7 µM
GI50 (SK-OV-3): 17 µM
CC50 (SK-OV-3; read-out: LC50): > 100 µM
GI50 (786-0): 10.5 µM
CC50 (786-0; read-out: LC50): 51 µM
GI50 (A498): 12.6 µM
CC50 (A498; read-out: LC50): 51.4 µM
GI50 (SN12C): 11.2 µM
CC50 (SN12C; read-out: LC50): 48.8 µM
GI50 (TK-10): 15.2 µM
CC50 (TK-10; read-out: LC50): 61.9 µM
GI50 (UO-31): 6.77 µM
CC50 (UO-31; read-out: LC50): 44.7 µM
GI50 (DU-145): 14 µM
CC50 (DU-145; read-out: LC50): 74.8 µM
GI50 (MCF7): 2.01 µM
CC50 (MCF7; read-out: LC50): 25.2 µM
GI50 (MDA-MB-231/ATCC): 6.56 µM
CC50 (MDA-MB-231/ATCC; read-out: LC50): 48 µM
GI50 (T-47D): 3.86 µM
CC50 (T-47D; read-out: LC50): 52.7 µM
GI50 (MDA-MB-468): 4.66 µM
CC50 (MDA-MB-468; read-out: LC50): 43 µM

— publication PMC11012124, “Synthesis of Novel Triazine-Based Chalcones and 8,9-dihydro-7H-pyrimido[4,5-b][1,4]diazepines as Potential Leads in the Search of Anticancer, Antibacterial and Antifungal Agents” (International Journal of Molecular Sciences, 2024)
